“Also recorded” adds a separate entry of the source.
Columns and labels:
Format in all cases: cell-based
[1] = tested on: Chlamydia trachomatis (Ctr) strain L2/434/Bu; assay: microbe, parasite or virus in culture; conditions: for protection against Ctr progeny infection at 25 μM (in words) / protection against Ctr progeny infection at 75 μM (in words): HeLa229; for protection against Ctr progeny infection at 25 μM (in words): Table 1; for protection against Ctr progeny infection at 75 μM (in words): FIG. 7 and Table 1; for inhibition at 25 µM / inhibition at 75 µM: Chlamydia trachomatis, HeLa 229, progeny infection, HeLa229, MOI1, versus solvent-treated cells; for inhibition at 25 µM: read-out: Cellular protection at 25 μM; for inhibition at 75 µM: read-out: Cellular protection at 75 μM
Procedure: HeLa229 (ATCC CCL-2.1). Cells were grown in RPMI1640 medium (Glutamax, 10% FBS, w/o HEPES) (Invitrogen).
(§1) Chlamydia trachomatis (Ctr). Laboratory-adapted strain L2/434/Bu (ATCC VR902B) was used in assays. Full biological and genetic information is available for this strain including complete genome sequence and defined proteome. This strain has a relatively low particle to infectivity ratio, perform efficient cell infection and has a higher viability than standard genital tract isolates with faster developmental cycle. Culture conditions have been described in (Wang Y., Kahane S., Cutcliffe L. T., Skilton R. J., Lambden P. R., Clarke I. N. Development of a transformation system for Chlamydia trachomatis: Restoration of glycogen biosynthesis by acquisition of a plasmid shuttle vector. PLoS Pathogen, 2011, 7(9):e1002258. doi: 10.1371/journal.ppat.1002258).
Compound application during Chlamydia trachomatis infection. HeLa229 cells were pretreated with compound #20 and its derivatives in concentrations of 25 μM and 75 μM for 1 hour until Chlamydia trachomatis (MOI1) were added to the cells. Compounds were present during infection. To obtain progeny infection, compound treated cells were lysed 24 h post infection (hpi) and lysate was used to infect fresh HeLa 229 cells.
Infected cells of progeny infection were fixed with 4% Paraformaldehyde 48 hpi. Cells were stained for DAPI and Chlamydia trachomatis were detected by GFP-signal. Images are representative of n=2 independent experiments. Quantification of infected cells by Chlamydia trachomatis was realized from microscopy images with Image J software (FIG. 7) and cellular protection by compounds at 25 μM and 75 μM was then determined (Table 1) by comparison with solvent-treated cells (control) with the following equation: […]

[2] = tested on: Chlamydia trachomatis (Ctr) strain L2/434/Bu; assay: Chlamydia trachomatis (Ctr) infectivity assay, HSP60 immunoblot of primary and progeny infection in HeLa229 cells
From the text: as §1
Compound application during Ctr infection. HeLa229 cells were pretreated with compound 20 in concentrations of 25, 50 and 75 μM for 30 min until Ctr (MOI1) were added to the cells. Compound 20 was present during infection.
Cells with primary infection were lysed 24 h post infection (hpi). To obtain progeny infection compound treated cells were lysed 48 hpi and lysate was used to infect fresh HeLa229 cells. Progeny infection was lysed 24 hpi and analyzed together with primary infection samples by immunoblot. Chlamydial growth was detected with antibodies against chlamydial HSP60 protein and Actin was used as loading control (FIG. 6).

[3] = tested on: Simkania negevensis (Sn) strain Z; assay: Sn infectivity assays (primary and progeny infection) in HeLa229 cells
Procedure: Simkania negevensis (Sn) strain Z (ATCC VR-1471) was prepared as described previously (Mehlitz A, Karunakaran K, Herweg J A, Krohne G, van de Linde S, Rieck E, Sauer M, Rudel T. The chlamydial organism Sn forms ER vacuole contact sites and inhibits ER-stress. Cell Microbiol 2014; 16(8):1224-1243).
Briefly, HeLa229 cells were grown to 50-70% confluence, were inoculated with Sn in RPMI1640 with 5% FBS, for 6 h at 35° C. in a humidified incubator at 5% CO2. Medium was replaced by infection medium (RPMI1640, Glutamax, 5% FBS, w/o HEPES) and growth was allowed for 3 days. Cells were mechanically detached and bacteria were released using ˜2-5 mm glass beads (Carl Roth). Low speed supernatant (600×g, 4° C. and 5 min) was subjected to high-speed centrifugation (20,000×g, 4° C. and 30 min) to pellet bacteria. Bacteria were washed twice with 5 ml SPG (250 mM sucrose, 50 mM sodium phosphate, 5 mM glutamate, pH 7.4), aliquoted and stored at '80° C. in SPG.
40,000 HeLa cells were seeded in 12-well cluster plates, inhibitor-treated and infected as indicated in the respective experiment.
For infectivity assays cells were either fixed and stained at indicated time points (FIGS. 2,4; inclusion formation/primary infection) or bacteria were released via one freeze thaw cycle (−70° C./37° C.) followed by mechanical release through pipetting and transfer to fresh HeLa229 cells (1:25-1:50, progeny/infectivity). Cells were centrifuged for 1 h at 35° C. and medium exchanged to infection medium. Progeny was fixed at day 3 post infection and processed for staining (FIG. 3) or harvested for immunoblotting (FIG. 1). Infectivity assays were imaged on an automated fluorescence microscope Leica DMIR (FIG. 4). Numbers and average sizes of the SCV as well as host cell numbers were determined via GroEL and DAPI staining and images were analysed and quantified using FIJI (ImageJ) and Excel (Microsoft).
In this progeny assay, bacteria are first grown in Hela299 cells treated with inhibitors (compound 20 at a concentration of 50 and 75 μM) and the infectious particles from this primary infection are applied to fresh cells in the absence of inhibitor to measure the bacterial load (GroEL immunoblot) and inclusion formation (immunofluorescence microscopy).

| Structure (SMILES) | protection against Ctr progeny infection at 25 μM (in words) [1] | protection against Ctr progeny infection at 75 μM (in words) [1] | inhibition at 25 µM [1] [%] | inhibition at 75 µM [1] [%] | effect on Ctr progeny infection at 50 μM ([2]; 50 μM, HSP60 immunoblot) | effect on Ctr progeny infection at 75 μM ([2]; 75 μM, HSP60 immunoblot) | effect on chlamydial development (primary Ctr infection) ([2]; 25, 50 and 75 μM, HSP60 immunoblot 24 hpi) | effect on Sn progeny infection ([3]; HeLa cells, 50 and 75 μM, GroEL immunoblot, relative inclusion number) | effect on Sn primary infection ([3]; HeLa cells, 50 and 75 μM, relative inclusion size, fluorescence microscopy) | concentration of maximal inhibition of Sn replication ([3]; HeLa cells, FIGS. 1, 2, 3 and 4) [µM] | subcellular structure of Sn inclusions by transmission electron microscopy ([3]; infected HeLa cells, versus DMSO-treated control) |
| --- | --- | --- | --- | --- | --- | --- | --- | --- | --- | --- | --- |
| COc1ccc(I)cc1CN[C@H]1C[C@H]2C[C@@H]([C@@H]1C)C2(C)C [VP386, (1S,2S,3S,5R)-N-(5-iodo-2-methoxybenzyl)-2,6,6-trimethylbicyclo[3.1.1]heptan-3-amine] | full protection | full protection | 100 | 100 |  |  |  |  |  |  |  |
| COc1ccc(Br)cc1CNC12CC3CC(C)(CC(C)(C3)C1)C2 [RN-2-103, (1R,3R,5S,7R)-N-(5-bromo-2-methoxybenzyl)-3,5-dimethyladamantan-1-amine] |  | full protection | 66.9 | 100 |  |  |  |  |  |  |  |
| O=C(Nc1ccc(S(=O)(=O)Nc2nccs2)cc1)C12CC3CC(CC(C3)C1)C2 [m3, (3R,5R,7R)-N-(4-(N-(thiazol-2-yl)sulfamoyl)phenyl)adamantane-1-carboxamide] |  |  | 46.9 | 87.8 |  |  |  |  |  |  |  |
| COc1ccc(Br)cc1CNC12CC3CC(CC(C3)C1)C2 [Compound 20, (3S,5S,7S)-N-(5-bromo-2-methoxybenzyl)adamantan-1-amine] |  |  | 19.9 | 75.7 | strongly reduced amounts of Ctr in the progeny | totally blocked progeny infection | slight inhibitory effect | inhibitor effect; also recorded: inhibits | inhibitor effect; also recorded: inhibits | 75 | dramatically smaller and less sub-vacuoles and just few bacteria; also recorded: the number of Sn inclusions is reduced and the vacuole size is much reduced |
| O=C(CC12CC3CC(CC(C3)C1)C2)N/N=C/c1ccc([N+](=O)[O-])o1 [m9, 2-((3R,5R,7R)-adamantan-1-yl)-N′-((E)-(5-nitrofuran-2-yl)methylene)acetohydrazide] | full protection | full protection | 100 | 100 |  |  |  |  |  |  |  |
| O=C(N/N=C/c1cccc([N+](=O)[O-])c1)NC12CC3CC(CC(C3)C1)C2 [m4, N-((3S,5S,7S)-adamantan-1-yl)-2-((E)-3-nitrobenzylidene)hydrazine-1-carboxamide] |  |  | 22.8 | 81.6 |  |  |  |  |  |  |  |
| C[C@@H]1[C@@H](NCc2ccc(I)cc2)C[C@H]2C[C@@H]1C2(C)C [VP390, (1S,2S,3S,5R)-N-(4-iodobenzyl)-2,6,6-trimethylbicyclo[3.1.1]heptan-3-amine] |  | full protection | 91.8 | 100 |  |  |  |  |  |  |  |
| COc1ccc(Br)cc1CN[C@H]1C[C@H]2C[C@@H]([C@@H]1C)C2(C)C [VP332, (1S,2S,3S,5R)-N-(5-bromo-2-methoxybenzyl)-2,6,6-trimethylbicyclo[3.1.1]heptan-3-amine] | full protection | full protection | 100 | 100 |  |  |  |  |  |  |  |
